Earlier results in patent US5965160A, “Self-emulsifiable formulation producing an oil-in-water emulsion” (priority 1998, dated 1999).

Conditions: sealed entero-coated hard gelatine capsule; Barnwell et al, 1992

CC(C)NCC(O)COc1cccc2ccccc12 (stereo not shown) [propranolol]
oral bioavailability (in words): can be improved by dissolving the drug in a lipid formulation containing mainly oleic acid
